Experimental data as given in patent publication US20060069132A1, “Azolecarboxamide herbicides” (priority 2004, published 2006).

How the values were obtained:
[1] = test system: giant foxtail; assay: Test B pre-/postemergence herbicide test; format: in vivo, Setaria faberi; conditions: for Plant response rating (0 to 100 scale), Foxtail, Giant: 0 is no effect, 100 is complete control, preemergence
In short: (§1)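 Evaluation is visual, comparing treated with control plants on a scale where 0 means no effect and 100 means full control. Treatments were preemergence, or postemergence on seedlings 2–18 cm tall, and held 13–15 days in the greenhouse.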

[2] = test system: barnyardgrass; assay: Test B flooded paddy test; format: in vivo, Echinochloa crus-galli; conditions: 1000 g ai/ha, scale 0 to 100 (0 no effect, 100 complete control)
In short: (§2)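 Postemergence plants were sprayed with formulated test chemicals at 2 to 18 cm height (1- to 4-leaf stage); paddy species were grown to the 2-leaf stage. After 13 to 15 days in a greenhouse, injury was rated visually against untreated controls on a 0–100 scale (0 = no effect, 100 = complete control).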

[3] = test system: small flower umbrella sedge; assay: Test B flooded paddy test; format: in vivo, Cyperus difformis; conditions: 1000 g ai/ha, scale 0 to 100 (0 no effect, 100 complete control)
In short: as §2

[4] = test system: wild oat; assay: Test B postemergence herbicide test; format: in vivo, Avena fatua
In short: (§3)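 Scale 0–100: zero equals no visible effect, 100 complete control, judged by eye relative to controls. Timing: 13 to 15 days in greenhouse post-treatment. Growth stage at spraying: two leaves (paddy) or one to four leaves, 2–18 cm (postemergence).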

[5] = test system: corn; assay: Test B pre-/postemergence herbicide test; format: in vivo, Zea mays; conditions: for Plant response rating (0 to 100 scale), Corn: 0 is no effect, 100 is complete control, preemergence
In short: as §1

[6] = test system: morningglory; assay: Test B pre-/postemergence herbicide test; format: in vivo, Ipomoea coccinea; conditions: for Plant response rating (0 to 100 scale), Morningglory: 0 is no effect, 100 is complete control, preemergence
In short: (§4)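 Seeds were planted and treated preemergence with compounds formulated in a non-phytotoxic solvent mixture containing surfactant, while plants at the 1- to 4-leaf stage (2 to 18 cm) received postemergence sprays. Flooded paddy plants were grown to the 2-leaf stage. After 13 to 15 days in a greenhouse, injury was visually rated 0–100 against untreated controls.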

[7] = test system: rice; assay: Test B flooded paddy test; format: in vivo, Oryza sativa; conditions: 1000 g ai/ha, scale 0 to 100 (0 no effect, 100 complete control)
In short: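 Each value is a visual 0–100 response rating taken against controls 13 to 15 days after treatment in the greenhouse. Plants received formulated chemical postemergence at the 1- to 4-leaf stage or, in flooded paddy, at the 2-leaf stage.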

[8] = test system: velvetleaf; assay: Test B pre-/postemergence herbicide test; format: in vivo, Abutilon theophrasti; conditions: for Plant response rating (0 to 100 scale), Velvetleaf: 0 is no effect, 100 is complete control, preemergence
In short: as §1

[9] = test system: cocklebur; assay: Test B pre-/postemergence herbicide test; format: in vivo, Xanthium strumarium; conditions: for Plant response rating (0 to 100 scale), Cocklebur: 0 is no effect, 100 is complete control, preemergence
In short: as §4

[10] = test system: lambsquarters; assay: Test B pre-/postemergence herbicide test; format: in vivo, Chenopodium album; conditions: for Plant response rating (0 to 100 scale), Lambsquarters: 0 is no effect, 100 is complete control, preemergence
In short: as §1

[11] = test system: Surinam grass; assay: Test B pre-/postemergence herbicide test; format: in vivo, Urochloa decumbens; conditions: for Plant response rating (0 to 100 scale), Surinam Grass: 0 is no effect, 100 is complete control, preemergence
In short: as §1

[12] = test system: wheat; assay: Test B postemergence herbicide test; format: in vivo, Triticum aestivum; design: key to Wheat plant response rating: 0 = no effect, 100 = complete control
In short: as §3

[13] = test system: large crabgrass; assay: Test B pre-/postemergence herbicide test; format: in vivo, Digitaria sanguinalis; conditions: for Plant response rating (0 to 100 scale), Crabgrass, Large: 0 is no effect, 100 is complete control, preemergence
In short: as §1

[14] = test system: barnyardgrass; assay: Test B pre-/postemergence herbicide test; format: in vivo, Echinochloa crus-galli; conditions: for Plant response rating (0 to 100 scale), Barnyardgrass: 0 is no effect, 100 is complete control, preemergence; for Barnyardgrass plant response rating: Postemergence, scale 0 (no effect) to 100 (complete control)
In short: as §4

[15] = test system: blackgrass; assay: Test B postemergence herbicide test; format: in vivo, Alopecurus myosuroides
In short: as §2

[16] = test system: pigweed; assay: Test B pre-/postemergence herbicide test; format: in vivo, Amaranthus retroflexus; conditions: for Plant response rating (0 to 100 scale), Pigweed: 0 is no effect, 100 is complete control, preemergence
In short: as §1

[17] = test system: ducksalad; assay: Test B flooded paddy test; format: in vivo, Heteranthera limosa; conditions: 1000 g ai/ha, scale 0 to 100 (0 no effect, 100 complete control)
In short: as §2

[18] = Postemergence, 500 g ai/ha, scale 0 (no effect) to 100 (complete control)
[19] = postemergence, 125 g ai/ha, scale 0 to 100
[20] = 500 g ai/ha, scale 0 to 100, 0 no effect, 100 complete control, preemergence

SMILES: CCNC(=O)c1ccnc(NC(=O)c2nn(C(C)(C)C)nc2C)c1 [Compound 424]
- Plant response rating (0 to 100 scale), Foxtail, Giant ([1]; 125 g ai/ha): 20
- Foxtail, Giant plant response rating [1, 18]: 30
- Foxtail, Giant plant response rating [1, 19]: 20
- Barnyardgrass plant response rating [2]: 40
- Sedge, Umbrella plant response rating [3]: 70
- Oat, Wild plant response rating [4, 18]: 0
- Oat, Wild plant response rating [4, 19]: 0
- Plant response rating (0 to 100 scale), Corn ([5]; 125 g ai/ha): 0
- Corn plant response rating [5, 18]: 10
- Corn plant response rating [5, 19]: 0
- Plant response rating (0 to 100 scale), Morningglory ([6]; 125 g ai/ha): 10
- Morningglory plant response rating [6, 18]: 70
- Morningglory plant response rating [6, 19]: 30
- Rice plant response rating [7]: 20
- Plant response rating (0 to 100 scale), Velvetleaf ([8]; 125 g ai/ha): 20
- Velvetleaf plant response rating [8, 18]: 30
- Velvetleaf plant response rating [8, 19]: 30
- Plant response rating (0 to 100 scale), Cocklebur ([9]; 125 g ai/ha): 0
- Cocklebur plant response rating [9, 18]: 30
- Cocklebur plant response rating [9, 19]: 20
- Plant response rating (0 to 100 scale), Lambsquarters ([10]; 125 g ai/ha): 70
- Lambsquarters plant response rating [10, 18]: 70
- Lambsquarters plant response rating [10, 19]: 40
- Plant response rating (0 to 100 scale), Surinam Grass ([11]; 125 g ai/ha): 30
- Surinam Grass plant response rating [11, 18]: 30
- Surinam Grass plant response rating [11, 19]: 20
- Wheat plant response rating [12, 20]: 50
- Wheat plant response rating [12, 18]: 0
- Wheat plant response rating [12, 19]: 0
- Plant response rating (0 to 100 scale), Crabgrass, Large ([13]; 125 g ai/ha): 90
- Crabgrass, Large plant response rating [13, 18]: 30
- Crabgrass, Large plant response rating [13, 19]: 10
- Plant response rating (0 to 100 scale), Barnyardgrass ([14]; 125 g ai/ha): 20
- Barnyardgrass plant response rating ([14]; 125 g ai/ha): 10
- Barnyardgrass plant response rating ([14]; 500 g ai/ha): 30
- Blackgrass plant response rating [15, 18]: 50
- Blackgrass plant response rating [15, 19]: 0
- Plant response rating (0 to 100 scale), Pigweed ([16]; 125 g ai/ha): 90
- Pigweed plant response rating [16, 18]: 60
- Pigweed plant response rating [16, 19]: 30
- Ducksalad plant response rating [17]: 70

SMILES: CCN(CC)C(=O)c1ccnc(NC(=O)c2nn(C(C)(C)C)nc2C)c1 [Compound 425]
- Plant response rating (0 to 100 scale), Foxtail, Giant ([1]; 125 g ai/ha): 20
- Foxtail, Giant plant response rating [1, 18]: 30
- Foxtail, Giant plant response rating [1, 19]: 20
- Barnyardgrass plant response rating [2]: 30
- Sedge, Umbrella plant response rating [3]: 70
- Oat, Wild plant response rating [4, 18]: 0
- Oat, Wild plant response rating [4, 19]: 0
- Plant response rating (0 to 100 scale), Corn ([5]; 125 g ai/ha): 0
- Corn plant response rating [5, 18]: 20
- Corn plant response rating [5, 19]: 10
- Plant response rating (0 to 100 scale), Morningglory ([6]; 125 g ai/ha): 0
- Morningglory plant response rating [6, 18]: 80
- Morningglory plant response rating [6, 19]: 70
- Rice plant response rating [7]: 20
- Plant response rating (0 to 100 scale), Velvetleaf ([8]; 125 g ai/ha): 20
- Velvetleaf plant response rating [8, 18]: 30
- Velvetleaf plant response rating [8, 19]: 20
- Plant response rating (0 to 100 scale), Cocklebur ([9]; 125 g ai/ha): 0
- Cocklebur plant response rating [9, 18]: 20
- Cocklebur plant response rating [9, 19]: 10
- Plant response rating (0 to 100 scale), Lambsquarters ([10]; 125 g ai/ha): 80
- Lambsquarters plant response rating [10, 18]: 70
- Lambsquarters plant response rating [10, 19]: 60
- Plant response rating (0 to 100 scale), Surinam Grass ([11]; 125 g ai/ha): 40
- Surinam Grass plant response rating [11, 18]: 20
- Surinam Grass plant response rating [11, 19]: 10
- Wheat plant response rating [12, 20]: 30
- Wheat plant response rating [12, 18]: 0
- Wheat plant response rating [12, 19]: 0
- Plant response rating (0 to 100 scale), Crabgrass, Large ([13]; 125 g ai/ha): 80
- Crabgrass, Large plant response rating [13, 18]: 30
- Crabgrass, Large plant response rating [13, 19]: 20
- Plant response rating (0 to 100 scale), Barnyardgrass ([14]; 125 g ai/ha): 10
- Barnyardgrass plant response rating ([14]; 125 g ai/ha): 10
- Barnyardgrass plant response rating ([14]; 500 g ai/ha): 20
- Blackgrass plant response rating [15, 18]: 20
- Blackgrass plant response rating [15, 19]: 0
- Plant response rating (0 to 100 scale), Pigweed ([16]; 125 g ai/ha): 70
- Pigweed plant response rating [16, 18]: 70
- Pigweed plant response rating [16, 19]: 50
- Ducksalad plant response rating [17]: 70
